Blank lines part the entries; values can stand above or below the compound they belong to.
How the values were obtained:
[1] = test system: yeast glycogen synthase (YGS); experiment: Activity assay of the yeast glycogen synthase (YGS) overexpressed in Pichia; assay type: biochemical; conditions: 6.7 mM UDP glucosamine, 1 mM maltoheptose, 30° C., 1 hour; preliminary results
Protocol: 6. Activity Assay of the Yeast Glycogen Synthase (YGS)
The last reaction: synthesis of cationic starch by the yeast glycogen synthase overexpressed in Pichia using UDPgluosamine and glucosyl oligosaccharide primers: […]
UDP glucosamine+starch→starch periodically interspersed with 2 amino anhydroglucose
The YGS produced from secreted expression in Pichia was isolated from the growth medium, desalted into a buffer containing 50 mM Tris-HCl and 5 mM EDTA, pH 7.8, and concentrated using Centricon-30 concentrator. The preparation was used for assaying the activity of YGS.
50 mM Tris-HCl and 5 mM EDTA, pH 7.8
6.7 mM UDP glucose or UDP glucosamine
6.7 mM glucose-6-phosphate
1 mM maltoheptose ([…], from Sigma)
Protein prep: 150 μg/300-μl reaction
Incubated at 30° C. for 1 hour.
Analyze by HPLC using Dionex's CarboPac-PA1 column with a pulsed amperometry detector (to detect the formation of elongated glusyl oligo primers);

bovine liver UGPase = target: T1, bovine liver UGPase (Bos taurus, UniProt Q07130); experiment: Activity assay of UDPglucose pyrophosphorylase (UGPase), bovine liver enzyme; assay type: biochemical; conditions: 2 mM substrate, 1 mM UTP, 30° C., 30 minutes, HPLC
T1 construct: purchased Sigma U 5877; host or cells: bovine liver
T1 sequence (Q07130 1-508): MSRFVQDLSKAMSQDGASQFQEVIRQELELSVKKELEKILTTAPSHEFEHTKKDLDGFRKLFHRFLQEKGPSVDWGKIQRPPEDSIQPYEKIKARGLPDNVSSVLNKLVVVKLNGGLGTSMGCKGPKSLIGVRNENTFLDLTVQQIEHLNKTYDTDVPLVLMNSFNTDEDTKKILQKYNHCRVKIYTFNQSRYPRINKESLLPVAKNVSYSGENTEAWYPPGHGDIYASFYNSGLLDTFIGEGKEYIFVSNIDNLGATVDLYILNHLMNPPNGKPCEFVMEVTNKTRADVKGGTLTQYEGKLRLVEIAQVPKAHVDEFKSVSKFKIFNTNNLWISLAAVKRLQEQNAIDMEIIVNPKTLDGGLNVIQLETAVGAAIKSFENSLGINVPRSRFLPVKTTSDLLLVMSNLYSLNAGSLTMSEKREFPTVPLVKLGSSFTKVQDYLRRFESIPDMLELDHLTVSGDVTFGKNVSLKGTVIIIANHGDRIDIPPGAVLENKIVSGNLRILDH
Protocol: (§1) 4. Activity Assay of UDPglucose Pyrophosporylase (UGPase) [drawing 1]
(§2) The above reaction is evaluated with an alternative substrate, glucosamine-1-phosphate.
(§3) Enzymes: UDP-glucose pyrophorylases purified from Bakers yeast (U 8501) & bovine liver (U 5877) by Sigma;
(§4) UGPase assay was conducted per protocals used by Sigma;
(§5) 48 mM Tris-HCl, pH 8.5; 19 mM MgCl2; 2.3 mM β-mercaptoethanol; 1 mM UTP; inorganic pyrophosphorylase; 2 mM glucose-1-P or glucosamine-1-P;
(§6) Carried out the reactions at 30° C. for 30 minutes;
(§7) Boiled for 5 min and passed through Centrion-10;

Phosphoglucomutase (PGM) = experiment: Activity assay of phosphoglucomutase (PGM), maize endosperm protein extract; assay type: biochemical; conditions: extract from immature seeds, 20 days after pollination, HPLC
Protocol: (§8) 3. Activity Assay of Phosphoglucomutase (PGM)
(§9) glucosamine-6-phosphate→glucosamine-1-phosphate
(§10) 80 mM triethanolamine, pH 7.6
(§11) 20 μM glucosae-1,6-bisphosphate
(§12) 2 mM glucosamine-1-phosphate or glucosamine-6-phosphate
Maize endosperm protein extract (200-μg total protein per 1.0 ml reaction)
Ground kernels in ice-cold homogenization buffer (50 mM KH2PO4, pH 7.0; 5 mM EDTA; and 1 mM
DTT). Kernels were dissected from an ear (HN18) harvested 20 days after pollination.
Filtered the homogenate through 4-layer cheesecloth, and centrifuged at 25,000×g for 20 min at 4° C.
Desalted the supernatant into the homogenization buffer using a fast FPLC desalting column and collected the flow through.
Added PMSF and chymostatin to a final concentration of 1 mM and used the flow-through as crude PGM prep for the assay.
(§13) Incubated at 30° C. for 15 min.
(§14) * Transferred to a Centricon-30 concentrator and centrifuged at 1,400× for 20 min.
(§15) Removed 100 μl of the filtrate and added 400-μl water.
(§16) Injected 50 μl onto Dionex's CarboPac PA1 column and detected with a pulsed amperometry detector.
(§17) Eluted with 100 mM NaOH and 100 mM NaOH/1M sodium acetate (to detect formation of glucosamine-6-phosphate or glucosamine-1-phosphate): […]

Baker yeast UGPase = target: T2, Baker yeast UGPase (Saccharomyces cerevisiae, UniProt P32861); experiment: Activity assay of UDPglucose pyrophosphorylase (UGPase), Baker yeast enzyme; assay type: biochemical, Bakers yeast; conditions: 2 mM substrate, 1 mM UTP, 30° C., 30 minutes, HPLC
T2 construct: UDP-glucose pyrophorylases purified from Bakers yeast (U 8501); purchased Sigma U 8501; host or cells: Bakers yeast
T2 sequence (P32861 1-499): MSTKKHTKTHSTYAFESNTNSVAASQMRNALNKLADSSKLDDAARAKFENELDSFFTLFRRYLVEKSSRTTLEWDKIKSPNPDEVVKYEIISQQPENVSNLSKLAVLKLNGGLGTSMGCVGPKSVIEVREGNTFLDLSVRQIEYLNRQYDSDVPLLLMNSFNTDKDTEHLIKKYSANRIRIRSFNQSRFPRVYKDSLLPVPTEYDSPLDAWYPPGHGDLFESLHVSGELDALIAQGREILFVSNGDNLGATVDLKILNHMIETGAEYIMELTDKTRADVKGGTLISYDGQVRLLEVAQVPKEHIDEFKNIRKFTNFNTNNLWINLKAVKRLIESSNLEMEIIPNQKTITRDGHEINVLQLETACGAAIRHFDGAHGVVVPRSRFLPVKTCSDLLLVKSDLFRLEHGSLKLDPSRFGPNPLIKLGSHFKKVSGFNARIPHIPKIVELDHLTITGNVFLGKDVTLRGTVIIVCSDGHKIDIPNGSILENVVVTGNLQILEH
Protocol: as §1, §2, §3, §4
50 mM Tris-HCl, pH 7.6; 16 mM MgCl2; 10 mM L-cystein, 1 mM UTP; inorganic pyrophosphorylase; 2 mM glucose-1-P or glucosamine-1-P;
as §6, §7

UGPase = UGPase activity in the maize endosperm protein extract; assay type: biochemical; conditions: extract from seeds harvested 20 days after pollination
Protocol: For UGPase Activity in the Maize Endosperm
Weighted 8-g GS3 kernels (20 days after pollination);
Added 0.5-ml Boehringer's protease inhibitor cocktail (one tablet dissolved in 1-ml water);
Blended for 10 sec, 3×at 4° C.;
Filtered through three layers of Cheesecloth at 4° C.;
Passed two 100-μl aliquots through a BioRad's BioSpin-30 column using a swing bucked rotor in Jouan at 2100 rpm, at RT, & repeated (i.e. two Bio-Spin-30 columns used for each of the 2, 100-μl aliquots);
as §5, §6, §7

PGM from rabbit muscle = target: T3, PGM from rabbit muscle (Oryctolagus cuniculus, UniProt P00949); experiment: Activity assay of phosphoglucomutase (PGM), commercial rabbit muscle PGM; assay type: biochemical; conditions: HPLC; for conversion of substrate by rabbit muscle PGM (glucosamine-1-phosphate to glucosamine-6-phosphate or reverse): 2 mM substrate, 30° C., 15 min, at completion/end of reaction
T3 construct: Commercial PGM from rabbit muscle; purchased Boehringer Mannheim 108375; host or cells: rabbit muscle
T3 sequence (P00949 1-562): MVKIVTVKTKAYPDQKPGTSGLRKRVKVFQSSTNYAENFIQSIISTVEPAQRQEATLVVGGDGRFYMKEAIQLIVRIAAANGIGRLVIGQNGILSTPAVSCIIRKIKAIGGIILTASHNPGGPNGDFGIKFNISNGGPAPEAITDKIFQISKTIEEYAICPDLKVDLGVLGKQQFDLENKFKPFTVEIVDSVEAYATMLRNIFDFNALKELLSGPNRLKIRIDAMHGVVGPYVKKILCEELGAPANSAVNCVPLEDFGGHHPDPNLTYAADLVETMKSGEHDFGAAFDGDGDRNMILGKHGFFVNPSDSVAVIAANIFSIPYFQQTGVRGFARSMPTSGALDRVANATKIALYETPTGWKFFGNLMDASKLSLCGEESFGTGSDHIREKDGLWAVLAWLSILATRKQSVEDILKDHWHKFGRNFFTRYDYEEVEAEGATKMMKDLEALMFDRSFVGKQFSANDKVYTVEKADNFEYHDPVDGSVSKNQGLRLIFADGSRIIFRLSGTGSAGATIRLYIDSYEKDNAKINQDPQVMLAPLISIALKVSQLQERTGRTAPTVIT
Protocol: as §8, §9, §10, §11, §12
Commercial PGM from rabbit muscle (Boehringer Mannheim, Catalog No. 108375)
as §13, §14, §15, §16, §17

Structure (SMILES): N[C@H]1[C@@H](OP(=O)(O)OP(=O)(O)OC[C@H]2O[C@@H](n3ccc(=O)[nH]c3=O)[C@H](O)[C@@H]2O)O[C@H](CO)[C@@H](O)[C@@H]1O [UDP glucosamine]
substrate recognition, transfer of glucosaminyl moiety to glucosyl oligo primers [1]: recognize UDP glucosamine as a substrate

Structure (SMILES): N[C@H]1C(OP(=O)(O)O)O[C@H](CO)[C@@H](O)[C@@H]1O (stereo partly drawn) [glucosamine-1-phosphate]
substrate recognition in formation of UDP glucosamine (bovine liver UGPase): recognized glucosamine-1-P as a substrate | use of substrate by PGM in maize endosperm extract (result in words) (Phosphoglucomutase (PGM)): Glucosamine-6-phosphate was detected | substrate recognition in formation of UDP glucosamine (Baker yeast UGPase): recognized glucosamine-1-P as a substrate | activity in using substrate to form UDP glucosamine (UGPase): also found in maize endosperm protein extract | conversion of substrate by rabbit muscle PGM (glucosamine-1-phosphate to glucosamine-6-phosphate or reverse) (PGM from rabbit muscle): about 60%

conversion of substrate by rabbit muscle PGM (glucosamine-1-phosphate to glucosamine-6-phosphate or reverse) (PGM from rabbit muscle): about 70%
Structure (SMILES): N[C@H]1C(O)O[C@H](COP(=O)(O)O)[C@@H](O)[C@@H]1O (stereo partly drawn) [glucosamine-6-phosphate]

use of substrate by PGM in maize endosperm extract (result in words) (Phosphoglucomutase (PGM)): near complete conversion | use of substrate by rabbit muscle PGM (result in words) (PGM from rabbit muscle; positive control, formation of glucose-6-phosphate): nearly depleted
Structure (SMILES): O=P(O)(O)O[C@H]1O[C@H](CO)[C@@H](O)[C@H](O)[C@H]1O [glucose-1-phosphate]
